Measured values published in the supplement of paper PMC6723410.

Assays:
[1] = test system: GUMC-403; assay: AC50 for reduction of cell viability; higher = less potent; conditions: 48 h
[2] = test system: GUMC-403; assay: viability at highest tested concentration (max response) relative to DMSO (% of DMSO control); higher = less cytotoxic; conditions: library / dose series: MIPE library, 11-point 1:3 dilution, 48 h
In short: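 Conditionally reprogrammed GUMC-403 papilloma cells from a patient were plated at 700/well in 5 μL F + Y medium in 1536-well plates and left overnight at 37 °C. A pin tool then added 23 nL of library compounds as an 11-point 1:3 series, for 48 h. CellTiter-Glo luminescence was read on a ViewLux and scaled with vehicle wells set to 100% and empty wells to 0%. Each value gives viability at the highest tested concentration relative to vehicle control.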

[3] = library / dose series: MIPE library, 11-point 1:3 dilution

SMILES	AC50 for reduction of cell viability [1, 3] [nM]	viability ([2]; top concentration 46.1 µM)	AC50 for reduction of cell viability ([1]; library / dose series: NPC library, 8-point 1:5 dilution) [nM]	viability ([2]; top concentration 23 µM)
COc1ncc(-c2ccc3nccc(-c4ccnnc4)c3c2)cc1N[S+](=O)([O-])c1ccc(F)cc1F	590	9.41	–	–
COc1c(C)cnc(Cn2cnc3c(Cl)nc(N)nc32)c1C	2960	61.4	–	–
CCN1CCN(CC1)CC(=O)NC2=CC=C(C3=C2C4=C(S3)C=CC=C4)C5=C6O\C(=C/C(=O)C6=CC=C5)N7CCOCC7	2960	58.7	–	–
NC1(C(=O)N[C@@H](CCO)c2ccc(Cl)cc2)CCN(c2ncnc3[nH]ccc23)CC1	16600	33.6	–	–
CCc1c(O)cc(O)c(C(=O)c2ccc(OCCN3CCOCC3)c(OC)c2)c1CC(=O)N(CCOC)CCOC	2090	56.6	–	–
CCNC(=O)Nc1ccc(-c2nc3c(c(N4CCOC[C@@H]4C)n2)CCN(C2COC2)C3)cc1	1180	60.3	–	–
CS[C@H]1SC[C@@H]2C(=O)N(C)[C@H](C(C)C)C(=O)OC[C@H](NC(=O)c3cnc4ccccc4n3)C(=O)N[C@H](C)C(=O)N(C)[C@H]1C(=O)N(C)[C@H](C(C)C)C(=O)OC[C@H](NC(=O)c1cnc3ccccc3n1)C(=O)N[C@H](C)C(=O)N2C	20.9	14.4	–	–
CN1CC[C@H]([C@@H](O)C1)C2=C(O)C=C(O)C3=C2O\C(=C/C3=O)C4=CC=CC=C4Cl	132	61.2	–	–
CNC(=O)Nc1ccc(-c2nc(N3CC4CCC(C3)O4)c3cnn(C4CCC5(CC4)OCCO5)c3n2)cc1	3.32	62.9	–	–
Cc1nc(Nc2n[nH]c3c2CN(C(=O)N[C@H](CN(C)C)c2ccccc2)C3(C)C)c2sccc2n1	3720	7.84	–	–
COC(=O)Nc1ccc(-c2nc(N3CCOCC3)c3cnn(C4CCN(Cc5cccnc5)CC4)c3n2)cc1	1050	23.5	–	–
CC1(C)OC/2=C(\[C@H](NCC3=CC=CC=C3)[C@@H]1O)C(=O)C4=CC=CC=C4C2=O	7430	5.84	–	–
O=C(Nc1cc(C(F)(F)F)cc(C(F)(F)F)c1)c1cc(Cl)ccc1O	1480	70	–	–
CC(C)c1cnn2c(NCc3ccccc3)cc(N[C@@H](CO)[C@H](O)CO)nc12	372	19.1	–	–
Cc1nc(Nc2ncc(C(=O)Nc3c(C)cccc3Cl)s2)cc(N2CCN(CCO)CC2)n1	209	58.6	–	–
CC(C)c1cc(C(=O)N2Cc3ccc(CN4CCN(C)CC4)cc3C2)c(O)cc1O	833	75.9	–	–
COC(=O)Nc1ccc(-c2nc(N3CCOCC3)c3cnn(C4CCN(C(=O)OC)CC4)c3n2)cc1	26.4	13.8	–	–
COc1cc(N2CCC(C(N)=O)CC2)ccc1Nc1nc(N)c(Cl)c(Nc2ccccc2[S+](=O)([O-])C(C)C)n1	8330	68.2	–	–
CN(C)c1ccc2nc3ccc(N(C)C)cc3[s+]c2c1	7430	6.57	–	–
CNCC[C@H](Oc1cccc2ccccc12)c1cccs1	10500	36	–	–
CC(NCc1ccc2c(c1)[nH]/c(=N\C(=O)c1ccc(-c3cn[nH]c3)s1)n2CC(C)(C)O)C(C)(C)C (stereo unspecified)	935	6.2	–	–
c1nc2c(NC3CCCCC3)nc(Nc3ccc(N4CCOCC4)cc3)nc2[nH]1	18700	31.3	–	–

SMILES	AC50 for reduction of cell viability [1, 3] [nM]	viability ([2]; top concentration 46.1 µM)	AC50 for reduction of cell viability ([1]; library / dose series: NPC library, 8-point 1:5 dilution) [nM]	viability ([2]; top concentration 23 µM)
CNC(=O)c1ccc(Nc2cc(Nc3ccccc3[S+](=O)([O-])C(C)C)c3cc[nH]c3n2)nc1	18700	10.4	–	–
NC(=O)Nc1cc(-c2cccc(F)c2)sc1C(=O)N[C@H]1CCCNC1	16600	12.8	–	–
COc1ccc(F)c(F)c1C(=O)c1cnc(NC2CCN([S+](C)(=O)[O-])CC2)nc1N	4690	55.6	–	–
Cc1n[nH]c2ccc(-c3cncc(OC[C@@H](N)Cc4ccccc4)c3)cc12	2640	5.22	–	–
CCN(CC)C(=S)SSC(=S)N(CC)CC	–	58.9	24800	–
N[S+](=O)([O-])c1cccc2c1C(=O)c1cccc(O)c1C2=O	13200	4.44	–	–
CC(C)(C)c1cnc(CSc2cnc(NC(=O)C3CCNCC3)s2)o1	469	24.3	–	–
CCc1ccc(OCc2ccccc2C(=O)Nc2ccc3nc(C)cc(N)c3c2)cc1	10500	4.25	–	–
CC[S+](=O)([O-])Nc1ccc2c(c1)/C(=C(/Nc1ccc(CN3CCCCC3)cc1)c1ccccc1)C(=O)N2	1320	50	–	–
CNC(=O)c1ccc(N2C(=S)N(c3cnc(C#N)c(C(F)(F)F)c3)C(=O)C23CCC3)cc1F	13200	16.6	–	–
C[C@@]12O[C@@H](C[C@]1(O)CO)n1c3ccccc3c3c4c(c5c6ccccc6n2c5c31)CNC4=O	5900	7.55	–	–
COc1cccc2c1C(=O)c1c(O)c3c(c(O)c1C2=O)C[C@@](O)(C(=O)CO)C[C@@H]3O[C@H]1C[C@H](N)[C@@H](O)[C@H](C)O1	2090	48.5	–	–
CN(c1ncccc1CNc1nc(Nc2ccc3c(c2)CC(=O)N3)ncc1C(F)(F)F)[S+](C)(=O)[O-]	7430	28	–	–
CC(C)C[C@@H](C(=O)N[C@H](C(=O)OC1CCCC1)c1ccccc1)[C@H](O)C(=O)NO	1660	66.7	–	–
COC1=C(OCCCN2CCOCC2)C=CC\3=C1/N=C(/NC(=O)C4=CN=C(N)N=C4)N5CC/N=C35	64.5	–	–	43.9
Nc1ncnc2c1c(-c1cnc3[nH]ccc3c1)nn2C1CCCC1	8330	7.41	–	–
N[S+](=O)([O-])OC[C@@H]1C[C@@H](n2ccc3c(N[C@H]4CCc5ccccc54)ncnc32)C[C@@H]1O	469	60.8	–	–
COC(=O)/C=C/C(=O)OC	3720	55.3	–	–
CC[C@@H]1[C@@H](C)O[C@@](O)([C@@H](C)[C@H](O)[C@H](C)[C@H]2OC(=O)/C=C/C=C/[C@H](C)[C@@H]([C@@H](C)[C@@H](O)[C@H](C)[C@@]3(O)C[C@@H](O[C@H]4C[C@H](O)[C@H](O)[C@H](C)O4)[C@H](CC)[C@@H](C)O3)OC(=O)/C=C/C=C/[C@@H]2C)C[C@H]1O[C@H]1C[C@H](O)[C@H](O)[C@H](C)O1	26400	8.03	–	–
C/C(=N\NC(=S)N1CCC1)c1ccccn1	4180	44	–	–
C[S+](=O)([O-])N1CCc2c(-c3cnc(N)nc3)nc(N3CCOCC3)nc21	332	46.2	–	–
